± gives the expanded uncertainty stated by the source.
Conditions: Liquid, Ebulliometric method (Recirculating still)

| SMILES | vapor or sublimation pressure (420.11 K) [kPa] | vapor or sublimation pressure (432.89 K) [kPa] | vapor or sublimation pressure (442.63 K) [kPa] | vapor or sublimation pressure (475.01 K) [kPa] | vapor or sublimation pressure (488.81 K) [kPa] | vapor or sublimation pressure (499.14 K) [kPa] |
| --- | --- | --- | --- | --- | --- | --- |
| O=C1CCCO1 [γ-butyrolactone] | 20 ± 0.6 | 30 ± 0.6 | 40 ± 0.6 |  |  |  |
| O=C1CCC(=O)O1 [succinic anhydride] |  |  |  | 20 ± 0.6 | 30 ± 0.6 | 40 ± 0.6 |

From the NIST ThermoML archive (doi:10.1021/acs.jced.7b00008)
